# Laboratory results reported in PubChem BioAssay AID651717 (Broad Institute, 2012).
# Test system: mESC Bmi1-luciferase reporter, firefly/renilla ratio, 24 h
# Assay: compounds raising Bmi1 reporter signal – mouse embryonic stem cells, luciferase, cherry-pick, esBAF inhibitor project, dose response (AID 651717);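 note: luciferase knocked into Bmi1 locus with EF-1a renilla as cell number control; rising ratio signals esBAF inhibition which derepresses Bmi1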
row,SMILES,AC40
1,Cc1cc2oc(=O)cc(CN3CCC(C)CC3)c2c(C)c1Cl,4.55 µM
2,CO[C@H]1CN(C)C(=O)c2ccc(NC(=O)Nc3ccc4c(c3)OCO4)cc2OC[C@@H](C)NC[C@H]1C,3.55 µM
3,COc1cccc(NC(=O)c2ccc3c(c2)CCN3S(C)(=O)=O)c1,7.43 µM
4,COc1ccc(C(O)c2nc(-c3ccc4ccccc4c3)cs2)cc1 (stereo unspecified),13 µM
5,O=C(CNC(=O)c1ccccc1F)Nc1ccc2c(c1)OCO2,3.55 µM
6,CCCCCCCSc1ncnc2[nH]ncc12,17.1 µM
7,O=C(Nc1cccc2ccccc12)OCc1ccccc1,3.96 µM
8,COc1ccc2c(c1)CC/C(=C/c1ccccn1)C2=O,1.86 µM
9,Cc1cc(Cl)c(O)c(-n2nc3ccccc3n2)c1,5.74 µM
10,CCC(=O)Nc1cccc(-c2nc3ccccc3o2)c1,15.7 µM
11,Cc1ccc(NC(=O)CN(C)S(=O)(=O)c2cccs2)cc1C,2.98 µM
12,COc1ccc(/C=C2/SC(=O)N(CCNC(=O)CC(NC(C)=O)c3ccccc3)C2=O)cc1 (stereo unspecified),10.2 µM
13,Cc1cccc(NC(=O)c2ccccn2)c1C,3.69 µM
14,Cc1ccc(-c2nnn(CC(=O)N(Cc3cccs3)C(C(=O)NC3CCCC3)c3ccncc3)n2)cc1 (stereo unspecified),34.5 µM
15,O=C(NN=Cc1ccc2c(c1)CCC2)c1ccccc1O,2.45 µM
16,COc1ccc(-n2nc(C(=O)NCC(=O)N3CCN(c4ccccc4)CC3)c3ccccc3c2=O)cc1OC,7.98 µM
17,C(=NN=Cc1c[nH]c2ccccc12)c1c[nH]c2ccccc12,3.9 µM
18,O=C(Nc1ccc(Oc2cccnc2)cc1)c1ccccc1F,12.7 µM
19,CCCCNC(=O)CSc1nc2ccc(N3CCOCC3)cc2c(=O)n1Cc1ccc(OC)cc1,11 µM
20,O=C(Nc1ccc2oc(-c3ccccc3)nc2c1)c1cccs1,1.58 µM
21,Cn1c(COc2ccccc2)nc2ccccc21,2.59 µM

row,SMILES,AC40
1,O=C(c1ccncc1)N1N=C(c2ccc(Cl)cc2)CC1c1ccccc1O (stereo unspecified),2.04 µM
2,Cc1cccc(N/N=C/c2ccc(C)s2)c1,2.91 µM
3,Cc1noc(C)c1C(=O)Nc1nc2ccccc2s1,3.83 µM
4,CCCN1C(=O)c2ccc(C(=O)Nc3ccc4c(c3)OCO4)cc2C1=O,9.64 µM
5,CSc1ccc(CNc2ccc(C)c(C)c2)cc1,2.83 µM
6,Nc1nc(SCc2ccccc2)c2ncn(C3CCCCC3)c2n1,2.09 µM
7,COc1ccc(Nc2nc(C)c(C(C)=O)s2)cc1,4.13 µM
8,CC(=O)Nc1ccc2nc(SCC(=O)Nc3ccc(N4CCOCC4)c(Cl)c3)sc2c1,3.57 µM
9,CC(=O)O/N=C(\N)c1ccc(-c2csnn2)cc1,29.5 µM
10,Cc1cccc(-c2nc(C#N)c(N3CCCCCC3)o2)c1,16.7 µM
11,COc1ccccc1CNC(=O)C[C@@H]1CC[C@@H]2[C@H](COC[C@H](O)CN2C(=O)Nc2ccc(Cl)cc2)O1,1.36 µM
12,COc1cccc(C(=O)Nc2ccc(Cl)c(C(F)(F)F)c2)c1,5.59 µM
13,O=C(Nc1ccccc1)c1cc(C2CCCN(C(=O)c3ccccc3)C2)on1 (stereo unspecified),4.54 µM
14,O=C(NNC(=O)c1cccc2ccccc12)c1ccc2c(c1)OCO2,17.8 µM
15,CC1CCc2c(sc(NC(=O)c3cccn3C)c2C(N)=O)C1 (stereo unspecified),3.63 µM
16,NCCNC(=O)c1c(NC(=O)c2ccccc2)sc2c1CCCC2,34.4 µM
17,C(=NOCc1ccccc1)c1cccnc1,4.28 µM
18,C/C(=N/O)c1cccc(N2Cc3ccccc3C2)c1,18.5 µM
19,O=C(Nc1cccc(-c2nc3ccccc3s2)c1)c1cc(-n2cnnc2)ccc1Cl,7.62 µM
20,C=CCNc1nc(NCc2ccc(NC(C)=O)cc2)c2sc(-c3ccccc3)cc2n1,0.635 µM
21,Cc1ccc(O)c(CNc2ccccn2)c1,16.7 µM

row,SMILES,AC40
1,c1ccc2cc(C3CCCCC3)ncc2c1,4.49 µM
2,COC(=O)c1ccc(CN2C(=O)NC3(CCCCC3)C2=O)cc1,7.87 µM
3,c1ccc(CCc2nc(-c3cccnc3)no2)cc1,1.64 µM
4,Cc1cccc(OCc2nc3ccccc3c(=O)n2N)c1,7.24 µM
5,c1csc(Cc2nc3ccccc3[nH]2)c1,16.2 µM
6,C1=NN(c2ccccc2)C=NN1c1ccccc1,1.17 µM
7,CC(=O)c1sc(Nc2ccc(Oc3ccccc3)cc2)nc1C,2.08 µM
8,CO[C@H]1CN(C)C(=O)c2ccc(NC(=O)Nc3ccc4c(c3)OCO4)cc2OC[C@@H](C)NC[C@@H]1C,2.76 µM
9,COc1ccc(CN(C(=O)CSc2nnc(-c3c[nH]c4ccccc34)o2)c2ccc(F)cc2)cc1OC,7.04 µM
10,Cc1ccc(NC(=O)c2cccc3ccccc23)cc1,13.9 µM
11,COc1cccc(NC(=O)C(=O)NCCC2CCCCN2S(=O)(=O)c2ccccc2)c1 (stereo unspecified),2.93 µM
12,Clc1ccc(/C=N/Nc2nc(Cl)nc3ccccc23)cc1,1.35 µM
13,O=c1c2ccccc2oc2cc(Br)ccc12,7.16 µM
14,CCc1c(C(=O)OCc2ccccc2)[nH]c(C)c1C,2.03 µM
15,COc1ccc(-c2nnn(Cc3ccccc3)n2)cc1,0.621 µM
16,O=C(NC1CCCCC1)c1cc(-c2cccc(Cl)c2)on1,6.04 µM
17,COc1ccccc1NC(=O)CSc1nc2sc3c(c2c(=O)n1-c1ccccc1)CCN(C)C3,19.1 µM
18,c1ccc(Oc2cc(-c3ccccc3)ncn2)cc1,2.16 µM
19,COc1ccc(C2=Nc3ccccc3NC(=O)C2N(C(=O)c2cc3ccccc3[nH]2)c2ccccc2)cc1 (stereo unspecified),1.44 µM
